Results: patent US6699846B2, “Mono- and disaccharides for the treatment of nitric oxide related disorders” (Corixa Corporation, priority 2000, dated 2004)
Like-named read-outs stand apart in the source and are kept apart here.

Key:
[1] = test system: human myelomonocytic cell line THP-1; test: proinflammatory cytokine elaboration from THP-1 cells; type: cell-based; details: for cytokine induction / cytokine stimulation: TNF-α, IL-1β, class symbols; for cytokine stimulation: second table
Description: The human myelomonocytic cell line THP-1 (ATCC) was used to evaluate the ability of glycolipids to induce proinflammatory cytokines. Glycolipids were added to cell suspensions of THP-1 as aqueous solutions containing 10% ethanol in water for injection. Prior to the 4 hr inductions, THP-1 cells are pre-incubated overnight with 10^−7 M vitamin D3, washed three times and replated in the presence of MPL®, LPS or the synthetic compounds. After 4 hr coincubating of cells with glycolipids, media containing drug is removed, cells resuspended in fresh media and allowed to rest for 20 hr.

USP rabbit pyrogen test = type: in vivo; details: for pyrogenicity: 2.5 μg dose, class symbols
Text: (§1) In clinical trials with monophosphoryl lipid A, fever was generally the first observed side effect. In clinical studies of various formulations of monophosphoryl lipid A administered intravenously, moderate fever, flu-like symptoms and alterations in blood pressure seem to be side effects that establish maximally tolerated doses. Minimum pyrogenic monophosphoryl lipid A doses, adjusted for body weight, as determined in the USP rabbit pyrogen test agree well with results observed in humans. […] In contrast, monophosphoryl lipid A becomes pyrogenic at intravenous doses of approximately 15 μg/kg (temperature increase of about 0.5° C.).

[2] = test system: iNOS induction in J774 murine macrophages; test: iNOS induction (nitrite release, Greiss reagent) in IFN-γ primed J774 cells; type: cell-based; details: for iNOS: second table, class symbols
Description: The murine macrophage cell line J774 can be primed by IFN-γ in vitro and is very responsive to subsequent LPS stimulation of iNOS upregulation as measured by a standard Greiss reagent ELISA assay procedure. The assay utilizes J774 cells seeded at 1×10^6/mL with 30 mL/flask and with IFN-γ added at 100 units/mL for 16-24 hrs. Cells are then harvested and washed and resuspended at 2×10^5/well in a 96-well plate and allowed to adhere. Glycolipid compounds are serially diluted into the wells for a test group and the resulting cultures are incubated for another 36-40 hrs before culture supernatants are collected from Greiss reagent analysis of nitrite release. Nitrite content closely parallels iNOS function.
Potency was determined as the concentration (ng/mL) of glycolipid in culture capable of inducing one-half maximal induction of nitrite (ED50). The lower the ED50 number, the greater the potency for iNOS induction.

[3] = test system: pig infarct (LAD occlusion); test: pig infarct study (LAD occlusion), acute cardioprotection; type: in vivo
Description: A total of 35 pigs were enrolled in the study: 8 in group 1; 10 in group 2; 7 in group 3, 7 in group 4; and 3 in group 5. When the data were analyzed, infarct size results from the two L-NAME control groups (1 and 3) were combined.

body temperature in rats = type: in vivo, rat
body temperature in dogs = type: in vivo, dog
Text: as §1

cardiac ischemia [4] = details: rabbits, treated about 24 h before cardiac ischemia
ischemic tissues = details: infusion immediately following bolus dosing
cardiac ischemia [5] = details: dogs
Text: Free-radicals produced during reperfusion promote cell death. Free-radical damage to cells results in calcium overload and a decrease in activity of a variety of enzyme systems including, presumably, nitric oxide synthase causing a decrease in nitric oxide production leading to increases in neutrophil adhesion.

[6] = THP-1 cells, not elicited up to this concentration

| SMILES | cytokine induction [1] | pyrogenicity (USP rabbit pyrogen test) | cytokine stimulation [1] | pyrogenicity (USP rabbit pyrogen test; second table) | iNOS [2] | other results |
| --- | --- | --- | --- | --- | --- | --- |
| CCCCCCCCCCCC(CC(=O)NC1C(O)OC(COC2OC(CO)C(OP(=O)(O)O)C(OC(=O)CC(CCCCCCCCCCC)OC(C)=O)C2NC(=O)CC(CCCCCCCCCCC)OC(C)=O)C(O)C1O)OC(C)=O (centres unmarked) [Compound 5.18] | − (−, not observable at 10 μg/mL) | + (+, from 1-2° C.) |  |  |  |  |
| CCCCCCCCCCCCCCCC(=O)OC(CCCCCCCCCCC)CC(=O)NC1C(O)OC(COC2OC(CO)C(OP(=O)(O)O)C(OC(=O)CC(CCCCCCCCCCC)OC(=O)CCCCCCCCCCCCC)C2NC(=O)CC(CCCCCCCCCCC)OC(=O)CCCCCCCCCCCCC)C(O)C1O (centres unmarked) [Compound 5.20] | ++ (++, observable @ 1 μg/mL) | − (−<1° C.) |  |  |  |  |
| CCCCCCCCCCC[C@H](CC(=O)N[C@H]1[C@H](OC[C@H](NC(=O)C[C@@H](CCCCCCCCCCC)OC(=O)CCCCC)C(N)=O)O[C@H](CO)[C@@H](OP(=O)(O)O)[C@@H]1OC(=O)C[C@@H](CCCCCCCCCCC)OC(=O)CCCCC)OC(=O)CCCCC [Compound 5.21] | − (−, not observable at 10 μg/mL) | − (−<1° C.) |  |  |  |  |
| CCCCCCCCCCC[C@H](CC(=O)NCCO[C@@H]1O[C@H](CO)[C@@H](OP(=O)(O)O)[C@H](OC(=O)C[C@@H](CCCCCCCCCCC)OC(=O)CCCCC)[C@H]1NC(=O)C[C@@H](CCCCCCCCCCC)OC(=O)CCCCC)OC(=O)CCCCC [Compound 5.23] | − (−, not observable at 10 μg/mL) | − (−<1° C.) |  |  |  |  |
| CCCCCCCCCCCCCC(=O)O[C@H](CCCCCCCCCCC)CC(=O)NCCCO[C@@H]1O[C@H](CO)[C@@H](OP(=O)(O)O)[C@H](OC(=O)C[C@@H](CCCCCCCCCCC)OC(=O)CCCCCCCCCCCCC)[C@H]1NC(=O)C[C@@H](CCCCCCCCCCC)OC(=O)CCCCCCCCCCCCC [Compound 5.25] | ++ (++, observable @ 1 μg/mL) | − (−<1° C.) |  |  |  |  |
| CCCCCCCCCCCC(CC(=O)N[C@H]1[C@H](OC[C@H](NC(=O)CC(CCCCCCCCCCC)OC(=O)CCCCC)C(=O)O)O[C@H](CO)[C@@H](OP(=O)(O)O)[C@@H]1OC(=O)CC(CCCCCCCCCCC)OC(=O)CCCCC)OC(=O)CCCCC (some centres unmarked) [Compound 5.26] |  |  | − (−, not observable at 10 μg/mL) | ++ (++>2° C.) | − (−>200) |  |
| CCCCCCCCCCCCCC(=O)O[C@H](CCCCCCCCCCC)CC(=O)NCCO[C@@H]1O[C@H](CO)[C@@H](OP(=O)(O)O)[C@H](OC(=O)C[C@@H](CCCCCCCCCCC)OC(=O)CCCCCCCCCCCCC)[C@H]1NC(=O)C[C@@H](CCCCCCCCCCC)OC(=O)CCCCCCCCCCCCC [Compound 5.29] | ++ (++, observable @ 1 μg/mL) | − (−<1° C.) |  |  |  |  |
| CCCCCCCCCCCC(CC(=O)NC1C(O)OC(COC2OC(CO)C(OP(=O)(O)O)C(OC(=O)CC(CCCCCCCCCCC)OC(=O)CCCCC)C2NC(=O)CC(CCCCCCCCCCC)OC(=O)CCCCC)C(O)C1O)OC(=O)CCCCC (centres unmarked) [Compound 5.31] | − (−, not observable at 10 μg/mL) | − (−<1° C.) |  |  |  |  |
| CCCCCCCCCCCC(CC(=O)NC1C(O)OC(COC2OC(CO)C(OP(=O)(O)O)C(OC(=O)CC(CCCCCCCCCCC)OC(=O)CCC)C2NC(=O)CC(CCCCCCCCCCC)OC(=O)CCC)C(O)C1O)OC(=O)CCC (centres unmarked) [Compound 5.32] | − (−, not observable at 10 μg/mL) | ++ (++>2° C.) |  |  |  |  |
| CCCCCCCCCCCC(CC(=O)N[C@H]1[C@H](OC[C@H](NC(=O)CC(CCCCCCCCCCC)OC(=O)CCCCCC)C(=O)O)O[C@H](CO)[C@@H](OP(=O)(O)O)[C@@H]1OC(=O)CC(CCCCCCCCCCC)OC(=O)CCCCCC)OC(=O)CCCCCC (some centres unmarked) [Compound 5.54] |  |  | − (−, not observable at 10 μg/mL) | ++ (++>2° C.) | − (−>200) |  |
| CCCCCCCCCCCC(CC(=O)N[C@H]1[C@H](OC[C@H](NC(=O)CC(CCCCCCCCCCC)OC(=O)CCCCCCCCC)C(=O)O)O[C@H](CO)[C@@H](OP(=O)(O)O)[C@@H]1OC(=O)CC(CCCCCCCCCCC)OC(=O)CCCCC)OC(=O)CCCCCCCCC (some centres unmarked) [Compound 5.66] |  |  | − (−, not observable at 10 μg/mL) | ++ (++>2° C.) | ++ (++<80) |  |
| CCCCCCCCCCCC(CC(=O)N[C@H]1[C@H](OC[C@H](NC(=O)CC(CCCCCCCCCCC)OC(=O)CCCCCCCCC)C(=O)O)O[C@H](CO)[C@@H](OP(=O)(O)O)[C@@H]1OC(=O)CC(CCCCCCCCCCC)OC(=O)CCCCC)OC(=O)CCCCC (some centres unmarked) [Compound 5.67] |  |  | − (−, not observable at 10 μg/mL) | ++ (++>2° C.) | − (−>200) |  |
| CCCCCCCCCCCC(CC(=O)N[C@H]1[C@H](OC[C@H](NC(=O)CC(CCCCCCCCCCC)OC(=O)CCCCC)C(=O)O)O[C@H](CO)[C@@H](OP(=O)(O)O)[C@@H]1OC(=O)CC(CCCCCCCCCCC)OC(=O)CCCCC)OC(=O)CCCCCCCCC (some centres unmarked) [Compound 5.68] |  |  | − (−, not observable at 10 μg/mL) | ++ (++>2° C.) | − (−>200) |  |
| COC(=O)[C@@H](N)CCCNC(=N)N[N+](=O)[O-] [L-NAME, Nω-nitro-L-arginine methyl ester, reference compound] |  |  |  |  |  | mean infarct size, L-NAME controls ([3]; pigs, combined group of L-NAME alone and L-NAME+vehicle, 0.5 mg/kg): 36.9±3.7% |
| CCCCCCCCCCCCCCCCCC(=O)OC(CCCCCCCCCCC)CC(=O)NC1C(OCC2OC(O)C(NC(=O)CC(CCCCCCCCCCC)OC(=O)CCCCCCCCCCCCCCC)C(O)C2O)OC(CO)C(OP(=O)(O)O)C1OC(=O)CC(CCCCCCCCCCC)OC(=O)CCCCCCCCCCCCC (centres unmarked) [RC-552] | − (−, not observable at 10 μg/mL) | − (−<1° C.) |  |  |  | intravenous dose without detectable increase in temperature (body temperature in rats): > 3 mg/kg; intravenous dose without detectable increase in temperature (body temperature in dogs): > 3 mg/kg; delayed protection (cardiac ischemia [4]): reduced infarct size and stunning; concentration inducing IL-1B secretion ([1]; THP-1 cells, 4 hr induction): > 10,000 ng/mL; concentration inducing IL-8 elaboration ([1]; THP-1 cells, 4 hr induction): > 10,000 ng/mL; concentration eliciting IL-1 [1, 6]: > 10,000 μg/mL; concentration eliciting IL-8 [1, 6]: > 10,000 μg/mL; concentration inducing TNF secretion ([1]; THP-1 cells, not induced up to this concentration): > 10,000 μg/mL; mean infarct size ([3]; pigs, 29 μg/kg i.v. bolus 10 minutes prior to ischemia (LAD occlusion), vehicle 28.9±5.0%): 14.2±3.0%; mean infarct size, L-NAME before RC-552 ([3]; pigs, 0.5 mg/kg L-NAME 30 minutes prior to 29 μg/kg RC-552): 40.2±4.4%; reduction of infarct size vs vehicle pretreated pigs ([3]; treated 10 minutes prior to ischemia): 50%; duration of extended acute protective effect (ischemic tissues): at least 3 h; average temperature increase (USP rabbit pyrogen test; rabbits, i.v. doses up to at least 1,000 μg/kg, 10% ethanol in USP WFI): less than 0.35 °C; delayed cardioprotective effect after NOS inhibitor (aminoguanidine or L-NAME) (cardiac ischemia [5]): blocked; delayed protection (cardiac ischemia [5]; treated about 24 h before cardiac ischemia): reduced infarct size and stunning; maximal iNOS activity / nitrite elaboration ([2]; J774, IFN-γ primed): very low maximal iNOS activity |
